In patent US8076310B2, “Phosphonate nucleosides useful as active ingredients in pharmaceutical compositions for the treatment of viral infections, and intermediates for their production” (K.U.Leuven Research & Development, priority 2004, dated 2011):

Molecular target: T1, HIV reverse transcriptase (Human immunodeficiency virus type 1 group M subtype B, UniProt P04585)
T1 construct: 0.025 U/μL HIV reverse transcriptase
Assay: Steady-state kinetics of nucleotide incorporation in a DNA hybrid by HIV reverse transcriptase
Assay type: biochemical
Conditions: 0.025 U/μL HIV reverse transcriptase, 250 nM primer/template, average of three determinations
Protocol: Determination of Km and Kcat values for the incorporation of dATP and PMDTApp in a DNA hybrid was carried out under steady-state conditions as described by Creighton et al. in Methods in Enzymology (1995) 262:232-256. […] Results given below are the average of three independent determinations. The reaction mixture contained 250 nM primer/template complex 0.025 U/μL HIV reverse transcriptase, and the triphosphate nucleotides to be incorporated (dATP and PMDTApp, respectively). The template sequence and the primer sequence used in this experiment are shown below. The reaction was quenched after 1, 2 and 3 minutes by adding a double volume of stop solution (90% formamide, 0.05% bromophenol blue, 0.05% xylene cyanol and 50 mM EDTA). Samples were analyzed by gel electrophoresis on a 16% polyacrylamide ureum gel in TBE buffer (89 mM Tris-borate, 2 mM EDTA buffer, pH 8.3) after heating the samples for 5 minutes at 70° C. Products were visualised by phosphorimaging. The amount of radioactivity in the bands corresponding to the products of the enzymatic reactions was determined using the Optiquant Image Analysis Software (Packard). Rate profiles were determined using GraphPad Prism® software.

Nc1ncnc2c1ncn2[C@H]1C[C@H](O)[C@@H](COP(=O)(O)OP(=O)(O)OP(=O)(O)O)O1 [dATP, deoxy-adenosine triphosphate]
Kcat: 0.66 min − 1
Km: 100 nM
